Assay results as given in patent publication US20070259055A1, “Method of deactivating dust mite allergens” (priority 2000, published 2007).

Biological target: T1, house dust mite (Dermatophagoides pteronyssinus) allergen (Der-pl) (Dermatophagoides pteronyssinus, UniProt P08176)
T1 construct: Test dust had been obtained from household vacuum cleaner bags; from tissue; host or cells: house dust (British; vacuum cleaner bags), sieved fraction smaller than 53 microns
T1 sequence (P08176 99-320): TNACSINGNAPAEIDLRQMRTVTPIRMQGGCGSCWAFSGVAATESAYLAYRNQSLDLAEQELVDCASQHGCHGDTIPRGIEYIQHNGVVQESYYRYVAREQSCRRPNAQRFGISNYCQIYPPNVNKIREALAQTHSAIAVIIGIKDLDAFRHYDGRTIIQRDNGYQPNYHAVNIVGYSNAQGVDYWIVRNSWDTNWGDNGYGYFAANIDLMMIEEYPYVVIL
Assay: Example 3: test liquid sprayed onto dust in petri dish, Der-pl ELISA
Assay type: biochemical
Experimental: Dust was collected from vacuum cleaner bags and passed through a series of sieves down to 53 microns. Clean petri dishes were labeled with the chemical to be tested and lined with filter paper. 0.3 g of dust was added to each dish and spread evenly over the filter paper. 0.1 g of dust was then removed from the filter paper for a control sample. The remaining dust was then redistributed evenly over the filter paper. 2.4 g+/−0.2 g of test chemical was sprayed onto the dust sample. The dust sample was left open to the air until the filter paper was dry. The dust was collected into eppendorfs and the weight of dust recovered was measured. 1 ml of 1% Bovine Serum Albumin-Phosphate Buffered Saline-Tween (BSA-PBS-T) was added to the control samples. 1 ml of 5% BSA-PBS-T was added to the test samples. The samples were left overnight in the refrigerator and then centrifuged for 5 minutes at 13,000 rpm. The supernatant was pipetted into an eppendorf for assay by Der-pl ELISA.
The test liquids were: • Distilled water • 2% Tea Tree Oil in distilled water (plus 0.1% Tween) • 2% Citronella Oil in distilled water (plus 0.10% Tween) • 1% Thymol in distilled water (plus 0.8% Tween) • 2% Hinoki Oil in distilled water (plus 0.1% Tween) • 2% Tannic Acid
Five replicates were completed for each test liquid. The allergen content of the control for each replicate was compared with the test sample allergen. The percentage reductions in allergen between the control and the test were determined for each replicate.

O=C(OC[C@H]1O[C@@H](OC(=O)c2cc(O)c(O)c(OC(=O)c3cc(O)c(O)c(O)c3)c2)[C@H](OC(=O)c2cc(O)c(O)c(OC(=O)c3cc(O)c(O)c(O)c3)c2)[C@@H](OC(=O)c2cc(O)c(O)c(OC(=O)c3cc(O)c(O)c(O)c3)c2)[C@@H]1OC(=O)c1cc(O)c(O)c(OC(=O)c2cc(O)c(O)c(O)c2)c1)c1cc(O)c(O)c(OC(=O)c2cc(O)c(O)c(O)c2)c1 [tannic acid]
average allergen reduction (2% Tannic Acid sprayed onto dust, positive control, five replicates): 99.15%

Cc1ccc(C(C)C)c(O)c1 [Thymol, 6-isopropyl-m-cresol]
allergen reduction more than the water alone tests (test liquid sprayed onto dust (2% Tea Tree Oil or 1% Thymol in distilled water plus Tween), average of five replicates, water alone 34.2%): 23.6% | significance of allergen reduction versus water tests (test liquid sprayed onto dust, t-test versus water): significant
